# In ChEMBL document CHEMBL5042522, “One- and Two-Photon Uncaging of Carbon Monoxide (CO) with Real-Time Monitoring: On-Demand Carbazole-Based Dual CO-Releasing Platform to Test over Single and Combinatorial Approaches for the Efficient Regression of Orthotopic Murine Melanoma In Vivo” (J Med Chem, 2022):
# The source made the active and inactive calls. The calls are words filed in the database; no cut-off is given here.
# Legend:
# [1] = Stability of compound in PBS buffer at pH 7.4 at 100 uM incubated for 72 hrs under dark condition by RP-HPLC analysis; format: physicochemical; details: read-out: Stability
# [2] = Photorelease ability in PBS buffer at pH 7.4 assessed as retention time of 1,1'-(9-ethyl-9H-carbazole-3,6-diyl)bis(2,2-dihydroxyethanone) formation at 100 uM irradiated with >= 365 nm Hg lamp for 30 mins by RP-HPLC analysis; format: physicochemical; details: pH 7.4, 0.5 h
# [3] = Photorelease ability in PBS buffer at pH 7.4 assessed as compound decomposition at 100 uM irradiated with >= 365 nm Hg lamp upto 30 mins by UV absorption spectroscopy; format: physicochemical; details: read-out: Drug degradation
# [4] = Photorelease ability in PBS buffer at pH 7.4 assessed as compound decomposition at 0.1 mM irradiated with pulsed laser at 730 nm for 30 mins by RP-HPLC analysis; format: physicochemical; details: read-out: Drug degradation
# [5] = Photorelease activity in PBS buffer at pH 7.4 assessed as release of CO using 3',6'-Bis(allyloxy)-3H-spiro(isobenzofuran-1,9'-xanthen)-3-one fluorescent probe by measuring red shift absorption spectra at 500 uM irradiated with >= 365 nm Hg lamp in presence of PdCl2 by absorption spectroscopy; format: physicochemical; details: pH 7.4, 500 µM, TDE = time-dependent effect
# [6] = Photorelease activity in PBS buffer at pH 7.4 assessed as release of CO using 3',6'-Bis(allyloxy)-3H-spiro(isobenzofuran-1,9'-xanthen)-3-one fluorescent probe by measuring increase in fluorescence intensity irradiated with >= 365 nm Hg lamp at 500 uM in presence of PdCl2 by fluorescence spectroscopy; format: physicochemical; details: pH 7.4, 500 µM, TDE = time-dependent effect
# [7] = Photorelease activity in PBS buffer at pH 7.4 assessed as release of CO at 500 uM irradiated with pulsed laser at 730 nm for 30 mins by absorption spectroscopy; format: physicochemical; details: pH 7.4, 0.5 h
# [8] = Photorelease activity in PBS buffer at pH 7.4 assessed as release of CO in absence of light irradiation by absorption spectroscopy; format: physicochemical
# [9] = Drug uptake in mouse B16-F10 cells assessed as drug internalization by measuring blue fluorescence at 20 uM incubated for 4 hrs followed by propidium iodide staining based confocal laser scanning microscopy; format: ADME, cell-based; details: b16-f10, 4 h
# B16-F10 [10] = assay: Photorelease activity in mouse B16-F10 cells assessed as uncaging of active molecules of drug by measuring green fluorescence at 20 uM incubated for 4 hrs irradiated with >= 365 nm Hg lamp for 5 mins and further incubated for 4 hrs by propidium iodide staining based confocal laser scanning microscopy; format: functional, cell-based; details: time 8.0 hrs
# B16-F10 [11] = assay: Cytotoxicity against mouse B16-F10 cells assessed as cell viability at 1.25 to 10 uM irradiated with >= 365 nm Hg lamp for 5 mins after 6 hrs post-treatment and further incubated for 72 hrs by MTT assay; format: functional; details: dose 1.25-10 µM, time 78 hrs
# B16-F10 [12] = assay: Cytotoxicity against mouse B16-F10 cells assessed as cell viability at 2.5 uM irradiated with >= 365 nm Hg lamp for 5 mins after 6 hrs post-treatment and further incubated for 72 hrs by MTT assay; format: functional; details: B16-F10, light or radiation study, time 78 hrs, read-out: Activity
# HEK293 [13] = assay: Induction of apoptosis in HEK293 cells assessed as late apoptotic cells at 5 uM incubated for 24 hrs by annexin-V-FITC and PI staining based flow cytometry analysis (reference value: 0 %); format: functional, Homo sapiens
# HEK293 [14] = assay: Induction of apoptosis in HEK293 cells assessed as necrotic cells at 5 uM incubated for 24 hrs by annexin-V-FITC and PI staining based flow cytometry analysis (reference value: 0 %); format: functional, Homo sapiens
# B16-F10 [15] = assay: Induction of apoptosis in mouse B16-F10 cells assessed as viable cells at 5 uM incubated for 24 hrs by annexin-V-FITC and PI staining based flow cytometry analysis (reference value: 99.9 %); format: functional; details: read-out: Activity
# B16-F10 [16] = assay: Induction of apoptosis in mouse B16-F10 cells assessed as late apoptotic cells at 5 uM incubated for 24 hrs by annexin-V-FITC and PI staining based flow cytometry analysis (reference value: 0.1 %); format: functional
# B16-F10 [17] = assay: Induction of apoptosis in mouse B16-F10 cells assessed as necrotic cells at 5 uM incubated for 24 hrs by annexin-V-FITC and PI staining based flow cytometry analysis (reference value: 0 %); format: functional
# B16-F10 [18] = assay: Induction of apoptosis in mouse B16-F10 cells assessed as early apoptotic cells at 5 uM with light irradiation incubated for 24 hrs by annexin-V-FITC and PI staining based flow cytometry analysis (reference value: 0 %); format: functional
# B16-F10 [19] = assay: Biodistribution in tumor site of C57BL/6 mouse model harboring mouse B16-F10 cells at 0.4 mg/kg, iv irradiated with >= 365 nm Hg lamp for 10 mins measured after 24 hrs post-administration by fluorescence based assay; format: ADME, organism-based; details: in vivo, 24.17 h, time 1450 min
# [20] = Biodistribution in kidney of C57BL/6 mouse model harboring mouse B16-F10 cells at 0.4 mg/kg, iv irradiated with >= 365 nm Hg lamp for 10 mins measured after 24 hrs post-administration by fluorescence based assay; format: ADME, organism-based; details: in vivo, 24.17 h, time 1450 min
# B16-F10 [21] = assay: Antitumor activity against mouse B16-F10 cells bearing C57BL/6J mouse assessed as tumor regression at 0.4 mg/kg, iv administered alternate days for 24 days followed by irradiation with pulsed laser at 730 nm for 10 mins after 24 hrs each post-injection and measured on day 25 by slide caliper method; format: functional, organism-based; details: time 25.0 day
# [22] = Toxicity in C57BL/6J mouse model harboring mouse B16-F10 cells assessed as change in body weight at 0.4 mg/kg, iv administered alternate days for 24 days followed by irradiation with pulsed laser at 730 nm for 10 mins after 24 hrs each post-injection; format: organism-based; details: in vivo, 600 h, 0.73 µM, time 25 day
# [23] = Toxicity in C57BL/6J mouse model harboring mouse B16-F10 cells assessed as change in movement at 0.4 mg/kg, iv administered alternate days for 24 days followed by irradiation with pulsed laser at 730 nm for 10 mins after 24 hrs each post-injection by hematoxylin and eosin staining based assay; format: organism-based; details: in vivo, 600 h, 0.73 µM, time 25 day
# [24] = Toxicity in C57BL/6J mouse model harboring mouse B16-F10 cells assessed as heart tissue necrosis at 0.4 mg/kg, iv administered alternate days for 24 days followed by irradiation with pulsed laser at 730 nm for 10 mins after 24 hrs each post-injection by hematoxylin and eosin staining based assay; format: organism-based; details: in vivo, 600 h, 0.73 µM, time 25 day
# [25] = Toxicity in C57BL/6J mouse model harboring mouse B16-F10 cells assessed as lung tissue necrosis at 0.4 mg/kg, iv administered alternate days for 24 days followed by irradiation with pulsed laser at 730 nm for 10 mins after 24 hrs each post-injection by hematoxylin and eosin staining based assay; format: organism-based; details: in vivo, 600 h, 0.73 µM, time 25 day
# [26] = Toxicity in C57BL/6J mouse model harboring mouse B16-F10 cells assessed as spleen tissue necrosis at 0.4 mg/kg, iv administered alternate days for 24 days followed by irradiation with pulsed laser at 730 nm for 10 mins after 24 hrs each post-injection by hematoxylin and eosin staining based assay; format: organism-based; details: in vivo, 600 h, 0.73 µM, time 25 day
# [27] = Photolysis of compound in PBS buffer at pH 7.4 assessed as compound decomposition by measuring final photoproduct formation at 0.1 mM irradiated with >= 365 nm for 30 mins by RP-HPLC analysis; format: physicochemical; details: pH 7.4, 0.5 h, 100 µM
compound,measurement,setting,value
CCn1c2ccc(-c3coc(=O)o3)cc2c2cc(-c3coc(=O)o3)ccc21,"remaining at 72 h, 100 µM",[1],96%
same,Retention_time,[2],8.82 min
same,"degraded at 0.5 h, 100 µM",[3],100%
same,"degraded at 0.5 h, 100 µM",[4],37%
same,Drug metabolism,[5],Tde
same,Drug metabolism,[6],Tde
same,Drug metabolism,[7],4.5 ppm
same,Drug metabolism,[8],Not Active
same,Drug uptake,[9],Active
same,Drug metabolism,B16-F10 [10],100%
same,Activity,B16-F10 [11],20%
same,viability at 2.5 µM,B16-F10 [12],21%
same,Activity,HEK293 [13],0.2%
same,Activity,HEK293 [14],0%
same,viability at 5 µM,B16-F10 [15],99%
same,Activity,B16-F10 [16],0%
same,Activity,B16-F10 [17],0%
same,Activity,B16-F10 [18],32.8%
same,Drug uptake,B16-F10 [19],Active
same,Drug uptake,[20],Active
same,Activity,B16-F10 [21],Active
same,Activity,[22],Non-Toxic
same,Activity,[23],Non-Toxic
same,Activity,[24],Non-Toxic
same,Activity,[25],Non-Toxic
same,Activity,[26],Non-Toxic
same,Drug degradation,[27],89%
